Publication PMC12152147, “DDB1 engagement defines the selectivity of S656 analogs for cyclin K degradation over CDK inhibition” (EMBO Reports, 2025)
Like-named read-outs stand apart in the source and are kept apart here.

Columns and labels:
[1] = tested on: OCI-AML5 cells; assay: Dose-response proliferative assay in OCI-AML5 (4 days, CellTiterGlo); assay type: cell-based, H. sapiens; conditions: read-out: IC50 in AML5
Method: Cell lines were purchased from the ATCC or donated from collaborators. OCI-AML5 cell line was cultured in αMEM, 10% heat-inactivated FBS supplemented with 10 ng/mL GM-CSF, OCI-AML1, U2OS and HEK293T cell lines in DMEM, 10% heat-inactivated FBS. Cells were maintained at 37 °C in 5% CO2 atmosphere.
Dose-response assays in primary AML specimens were performed as in chemical screen (see above) with the exception that compounds were tested in serial dilution (8 dilutions, 1:4, 10 μM down to 0.5 nM). Dose-response assays in OCI-AML5 cell line were conducted similarly with the following modifications: 300 cells per well were seeded in 50 μL of cell line media and cell viability was evaluated after 4 days in culture.

[2] = tested on: OCI-AML5 cells expressing shRNAs targeting CDK1, 2, 4, 7, 9, cyclin K; assay: Dose response in OCI-AML5 expressing shRNAs targeting CDK1, 2, 4, 7, 9, cyclin K or control; assay type: cell-based, H. sapiens; conditions: for Class: class from shRNA IC50 profile and cyclin K-eGFP degradation; for class based on cellular selectivity: IC50 in shRNA OCI-AML5 cells and cyclin KeGFP degradation
[3] = tested on: OCI-AML5 cells expressing shRNA targeting CUL4A or CUL4B; assay: Dose response in OCI-AML5 expressing shRNAs targeting CUL4A, CUL4B or control; assay type: cell-based, H. sapiens; conditions: ratio of IC50 in shCUL4A vs shCTRL OCI-AML5 cells
[4] = target: T1, CDK9/CyclinT (Homo sapiens, UniProt P50750); assay: CDK9/CyclinT in vitro kinase activity, single concentration 1 μM; assay type: biochemical; conditions: single concentration 1 μM
T1 construct: purchased BPS Bioscience 79628
T1 sequence (P50750 whole entry): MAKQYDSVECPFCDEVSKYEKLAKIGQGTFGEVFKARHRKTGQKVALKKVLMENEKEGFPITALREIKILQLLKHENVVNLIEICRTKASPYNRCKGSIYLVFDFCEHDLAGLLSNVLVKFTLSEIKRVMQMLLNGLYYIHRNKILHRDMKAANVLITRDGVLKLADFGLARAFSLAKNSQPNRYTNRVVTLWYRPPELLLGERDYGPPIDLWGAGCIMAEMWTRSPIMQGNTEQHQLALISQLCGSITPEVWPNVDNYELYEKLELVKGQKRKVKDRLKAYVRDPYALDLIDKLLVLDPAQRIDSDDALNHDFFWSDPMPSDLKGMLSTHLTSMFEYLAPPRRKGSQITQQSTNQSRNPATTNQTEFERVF
T1 sequence (O60563 whole entry partner): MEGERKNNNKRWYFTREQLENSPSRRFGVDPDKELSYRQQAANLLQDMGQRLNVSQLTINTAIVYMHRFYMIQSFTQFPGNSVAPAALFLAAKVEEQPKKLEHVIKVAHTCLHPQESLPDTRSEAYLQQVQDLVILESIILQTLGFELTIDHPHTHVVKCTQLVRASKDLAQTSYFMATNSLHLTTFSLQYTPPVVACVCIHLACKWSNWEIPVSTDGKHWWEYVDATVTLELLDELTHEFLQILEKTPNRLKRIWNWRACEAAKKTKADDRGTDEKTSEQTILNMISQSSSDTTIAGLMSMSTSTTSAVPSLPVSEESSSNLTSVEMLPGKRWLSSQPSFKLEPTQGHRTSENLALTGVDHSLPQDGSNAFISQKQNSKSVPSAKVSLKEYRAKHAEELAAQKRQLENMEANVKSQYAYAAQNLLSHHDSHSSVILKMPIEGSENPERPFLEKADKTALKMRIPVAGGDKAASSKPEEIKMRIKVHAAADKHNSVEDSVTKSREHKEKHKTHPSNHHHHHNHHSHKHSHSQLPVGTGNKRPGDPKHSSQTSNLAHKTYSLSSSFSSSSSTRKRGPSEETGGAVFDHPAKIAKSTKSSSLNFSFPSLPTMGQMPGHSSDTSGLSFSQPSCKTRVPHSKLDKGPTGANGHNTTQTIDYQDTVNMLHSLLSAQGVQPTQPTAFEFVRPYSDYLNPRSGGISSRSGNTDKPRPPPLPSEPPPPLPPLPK
Method: (§1) Kinase activity was assessed using the kinase assay kits from BPS Bioscience for CDK1, CDK9 and CDK12 with Kinase Glo MAX in duplicates. Compounds were tested at a single concentration of 1 μM for CDK1 and CDK9 activity, and in a dilution ranging from 0.64 nM to 50 μM for CDK12 activity. Chemiluminescence was read using the Neo Synergy BioTek plate reader.

[5] = tested on: cyclin KeGFP; assay: Cyclin KeGFP reporter system (eGFP/mCherry MFI by flow cytometry);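 also: 10 μM compound for 3 h relative to DMSO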; assay type: cell-based, H. sapiens; conditions: cyclin K-eGFP reporter
Method: We used the cyclin KeGFP reporter system previously described (Słabicki et al, [2020]). Lentiviral vector (Addgene plasmid #169930) was used to infect OCI-AML5 at a MOI of 5 and were selected with puromycin. Cells were seeded in methylcellulose and let grown as colonies for 10 days. Colonies were isolated, expanded and selected based on cyclin KeGFP fluorescence in presence and absence of cyclin K degrader molecules. Selected G7 clone was used for all reported experiments. Fluorescent signal of cyclin KeGFP and mCherry were quantified by flow cytometry (BD LSRII) in each condition and the geometric mean fluorescence intensity (MFI) were calculated using FlowJo (BD Biosciences). The ratio of eGFP to mCherry was normalized to DMSO-treated cells.

[6] = target: T2, CDK1 (Homo sapiens, UniProt P06493); assay: CDK1 in vitro kinase activity, single concentration 1 μM; assay type: biochemical; conditions: single concentration 1 μM
T2 construct: purchased BPS Bioscience 79597
T2 sequence (P06493 whole entry): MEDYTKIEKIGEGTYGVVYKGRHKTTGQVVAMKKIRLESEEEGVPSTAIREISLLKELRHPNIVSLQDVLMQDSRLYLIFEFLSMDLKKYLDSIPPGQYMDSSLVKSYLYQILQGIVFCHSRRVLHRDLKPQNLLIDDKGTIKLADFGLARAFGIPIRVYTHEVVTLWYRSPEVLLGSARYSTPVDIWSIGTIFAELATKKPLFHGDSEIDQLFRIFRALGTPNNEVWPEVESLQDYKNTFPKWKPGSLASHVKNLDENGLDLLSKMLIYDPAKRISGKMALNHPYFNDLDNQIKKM
T2 sequence (P14635 whole entry partner): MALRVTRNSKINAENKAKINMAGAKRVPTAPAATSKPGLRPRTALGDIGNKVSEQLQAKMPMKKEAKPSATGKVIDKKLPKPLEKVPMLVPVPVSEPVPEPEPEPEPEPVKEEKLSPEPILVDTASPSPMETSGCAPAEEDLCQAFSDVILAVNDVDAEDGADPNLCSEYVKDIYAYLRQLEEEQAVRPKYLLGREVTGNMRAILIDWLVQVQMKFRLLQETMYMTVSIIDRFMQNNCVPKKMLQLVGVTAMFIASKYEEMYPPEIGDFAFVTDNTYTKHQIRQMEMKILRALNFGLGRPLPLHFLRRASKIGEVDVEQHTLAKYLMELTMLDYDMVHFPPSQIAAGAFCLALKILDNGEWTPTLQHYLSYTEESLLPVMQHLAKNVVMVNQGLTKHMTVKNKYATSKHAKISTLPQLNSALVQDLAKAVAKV
Method: as §1

[7] = Homo sapiens, OCI-AML-5, OCI-AML5 cells
[8] = Homo sapiens, OCI-AML-5, OCI-AML5 expressing shRNA CCNK (cyclin K), read-out: IC50 shRNA CCNK
[9] = Homo sapiens, OCI-AML-5, OCI-AML5 expressing shRNA CDK1, read-out: IC50 shRNA CDK1
[10] = Homo sapiens, OCI-AML-5, OCI-AML5 expressing shRNA CDK2, read-out: IC50 shRNA CDK2
[11] = Homo sapiens, OCI-AML-5, OCI-AML5 expressing shRNA CDK4, read-out: IC50 shRNA CDK4
[12] = Homo sapiens, OCI-AML-5, OCI-AML5 expressing shRNA CDK7, read-out: IC50 shRNA CDK7
[13] = Homo sapiens, OCI-AML-5, OCI-AML5 expressing shRNA CDK9, read-out: IC50 shRNA CDK9
[14] = OCI-AML5 expressing shRNA CCNK (cyclin K), read-out: IC50 shRNA CCNK
[15] = OCI-AML5 expressing shRNA CDK1, read-out: IC50 shRNA CDK1
[16] = OCI-AML5 expressing shRNA CDK2, read-out: IC50 shRNA CDK2
[17] = OCI-AML5 expressing shRNA CDK4, read-out: IC50 shRNA CDK4
[18] = OCI-AML5 expressing shRNA CDK7, read-out: IC50 shRNA CDK7
[19] = OCI-AML5 expressing shRNA CDK9, read-out: IC50 shRNA CDK9

SMILES	IC50 [1, 7] [nM]	IC50 [2, 8] [nM]	IC50 [2, 9] [nM]	IC50 [2, 10] [nM]	IC50 [2, 11] [nM]	IC50 [2, 12] [nM]	IC50 [2, 13] [nM]	inhibition at 1 µM [4] [%]	inhibition at 1 µM [6] [%]	Class [2]	Ratio shCUL4A/shCTRL [3]	% degradation cyclin K-eGFP [5] [%]	class based on cellular selectivity [2]	also measured
[N-]=[N+]=Nc1ccc(CC(=O)Nc2ncc(SCc3cccnc3)s2)cc1 [UOM-005062]	2180	921	1280	2320	2620	2520	1490	99	63	mixed 1-2	1.35	45		
O=C(Cc1ccc(F)cc1)Nc1ncc(SCc2cccnc2)s1 [UOM-005197]	2790	3580	1350	2690	3400	3360	1810	57	59	2	1.15	24	Class II	
CC(C)(C)OC(=O)N1CCC(CC(=O)Nc2ncc(SCc3cccnc3)s2)C1 (stereo not drawn) [UOM-005226]	> 10000	> 10000	6250	> 10000	> 10000	> 10000	> 10000	39	46	2	1.24	2		
COc1ccc2cc([C@H](C)C(=O)Nc3ncc(SCc4cccnc4)s3)ccc2c1 [UOM-005431]										1	2.43	78		IC50 ([1]; OCI-AML5 cells): 895 nM; IC50 [2, 14]: 396 nM; IC50 [2, 15]: 1080 nM; IC50 [2, 16]: 1160 nM; IC50 [2, 17]: 979 nM; IC50 [2, 18]: 1080 nM; IC50 [2, 19]: 876 nM; % CDK9 inhibition [4]: 78%; % CDK1 inhibition [6]: 53%
COc1ccc(CC(=O)Nc2ncc(SCc3cccnc3)s2)cc1 [UOM-005201]	3000	2010	1030	2880	3380	3110	1390	54	69	2	0.99	55	Class II	
O=C(Cc1ccc(Cl)cc1)Nc1ncc(SCc2cccnc2)s1 [UOM-005198]	2920	3040	1300	2760	3430	3430	2100	32	51	2	1.12	33	Class II	
O=C(Cc1ccc(I)cc1)Nc1ncc(SCc2cccnc2)s1 [UOM-005200]	1060	368	1080	1280	1110	1510	1020	62	87	1	2.36	77	Class I (effective cyclin K MGDs (decreased IC50 in cyclin K depleted cells only, and >65% degradation of cyclin KeGFP))	
O=C(Cc1ccc(CNC(=O)OCC2c3ccccc3-c3ccccc32)cc1)Nc1ncc(SCc2cccnc2)s1 [UOM-005432]										2	1.02	5	Class II	IC50 ([1]; OCI-AML5 cells): 840 nM; IC50 [2, 14]: 753 nM; IC50 [2, 15]: 293 nM; IC50 [2, 16]: 886 nM; IC50 [2, 17]: 895 nM; IC50 [2, 18]: 807 nM; IC50 [2, 19]: 391 nM; % CDK9 inhibition [4]: 62%; % CDK1 inhibition [6]: 100%
O=C(Cc1ccc(Br)cc1)Nc1ncc(SCc2cccnc2)s1 [UOM-005199]	2560	1500	1180	2940	2830	2800	1780	100	60	mixed 1-2	0.67	64		

Continued, in another order:

IC50 [1, 7] [nM]	IC50 [2, 8] [nM]	IC50 [2, 9] [nM]	IC50 [2, 10] [nM]	IC50 [2, 11] [nM]	IC50 [2, 12] [nM]	IC50 [2, 13] [nM]	inhibition at 1 µM [4] [%]	inhibition at 1 µM [6] [%]	SMILES	Class [2]	Ratio shCUL4A/shCTRL [3]	% degradation cyclin K-eGFP [5] [%]	class based on cellular selectivity [2]	also measured
1950	888	2240	2420	1920	2270	1690	100	37	O=C(Cc1coc2cc3c(cc12)CCC3)Nc1ncc(SCc2cccnc2)s1 [UOM-005479]	1	1.94	76	Class I (effective cyclin K MGDs (decreased IC50 in cyclin K depleted cells only, and >65% degradation of cyclin KeGFP))	
750	574	314	730	709	658	299	63	100	O=C(Cc1ccc(NC(=O)c2cccnc2)cc1)Nc1ncc(SCc2cccnc2)s1 [UOM-005475]	2	1.05	0		
152	45.2	160	180	160	170	125	54	63	O=C(Cc1ccc(N2CCCC2)cc1)Nc1ncc(SCc2cccnc2)s1 [UOM-005608]	1	2.84	77	Class I (effective cyclin K MGDs (decreased IC50 in cyclin K depleted cells only, and >65% degradation of cyclin KeGFP))	
660	576	350	574	626	646	270	66	87	O=C(Cc1ccc(NC(=O)c2ccncc2)cc1)Nc1ncc(SCc2cccnc2)s1 [UOM-005476]	2	0.87	1	Class II	
1070	481	566	912	897	916	554	64	35	O=C(Cc1ccc(-c2ccncc2)cc1)Nc1ncc(SCc2cccnc2)s1 [UOM-005550]	mixed 1-2	0.87	35		
361	135	502	544	509	578	369	67	70	O=C(Cc1ccc2ccccc2c1)Nc1ncc(SCc2cccnc2)s1 [UOM-005428]	1	2.81	80	Class I (effective cyclin K MGDs (decreased IC50 in cyclin K depleted cells only, and >65% degradation of cyclin KeGFP))	
